Test results from ChEMBL document CHEMBL3217667, “Extended side chain analogues of 8-aminoquinolines: Synthesis and evaluation of antiprotozoal, antimicrobial, -hematin inhibition, and cytotoxic activities” (Medchemcomm, 2011).
Calls of active or inactive are those of the source. The rule behind the calls is not given here.

Key:
Plasmodium berghei [1] = test: Antimalarial activity against Plasmodium berghei infected in mouse assessed as reduction in parasitemia at 10 mg/kg/day, po for 4 days measured up to day 7; type: functional, organism-based
Pseudomonas aeruginosa = test: Antibacterial activity against Pseudomonas aeruginosa; type: functional, organism-based
Vero = test: Cytotoxicity against African green monkey Vero cells by neutral red uptake assay; type: cell-based; conditions: Chlorocebus sabaeus
SK-OV-3 = test: Cytotoxicity against human SKOV3 cells by neutral red uptake assay; type: cell-based
Plasmodium berghei [2] = test: Antimalarial activity against Plasmodium berghei infected in mouse assessed as reduction in parasitemia at 100 mg/kg/day, po for 4 days measured up to day 14; type: functional; design: scale not given: the % may be the effect or the level left
Nakaseomyces glabratus = test: Antifungal activity against Candida glabrata by broth microdilution assay; type: functional, organism-based
Leishmania donovani = test: Antileishmanial activity against Leishmania donovani promastigotes by Alamar Blue assay; type: functional, organism-based
LLC-PK1 = test: Cytotoxicity against pig LLC-PK1 cells by neutral red uptake assay; type: cell-based; conditions: Sus scrofa
Staphylococcus aureus [3] = test: Antibacterial activity against methicillin-resistant Staphylococcus aureus up to 20 ug/ml; type: functional, organism-based
Escherichia coli = test: Antibacterial activity against Escherichia coli; type: functional, organism-based
[4] = Selectivity index, ratio of IC50 for African green monkey Vero cells to IC50 for chloroquine-resistant Plasmodium falciparum W2; type: toxicity, cell-based; conditions: read-out: Ratio IC50
Candida albicans = test: Antifungal activity against Candida albicans by broth microdilution assay; type: functional, organism-based
Plasmodium falciparum [5] = test: Antimalarial activity against chloroquine-sensitive Plasmodium falciparum D6 by lactate dehydrogenase assay; type: functional, organism-based; conditions: Plasmodium falciparum, D6; read-out: IC50
Pichia kudriavzevii = test: Antifungal activity against Candida krusei by broth microdilution assay; type: functional, organism-based
Aspergillus fumigatus = test: Antifungal activity against Aspergillus fumigatus by broth microdilution assay; type: functional, organism-based
Plasmodium falciparum [6] = test: Antimalarial activity against chloroquine-resistant Plasmodium falciparum W2 by lactate dehydrogenase assay; type: functional, organism-based; conditions: Plasmodium falciparum, W2; read-out: IC50
BT-549 = test: Cytotoxicity against human BT549 cells by neutral red uptake assay; type: cell-based
KB = test: Cytotoxicity against human KB cells by neutral red uptake assay; type: cell-based
Plasmodium berghei [7] = test: Antimalarial activity against Plasmodium berghei infected in mouse assessed as reduction in parasitemia at 50 mg/kg/day, po for 4 days measured up to day 60 relative to control; type: functional; design: scale not given: the % may be the effect or the level left
Plasmodium berghei [8] = test: Antimalarial activity against Plasmodium berghei infected in mouse assessed as reduction in parasitemia at 100 mg/kg/day, po for 4 days measured up to day 60 relative to control; type: functional; design: scale not given: the % may be the effect or the level left
Cryptococcus neoformans [9] = test: Antifungal activity against Cryptococcus neoformans up to 20 ug/ml by broth microdilution assay; type: functional, organism-based
[10] = test system: Mycobacterium intracellulare; test: Antibacterial activity against Mycobacterium intracellulare up to 20 ug/ml; type: functional, organism-based
Plasmodium berghei [11] = test: Antimalarial activity against Plasmodium berghei infected in mouse assessed as reduction in parasitemia at 25 mg/kg/day, po for 4 days measured up to day 60 relative to control; type: functional; design: scale not given: the % may be the effect or the level left
[12] = Inhibition of beta-hematin formation after 16 hrs; type: physicochemical
[13] = Selectivity index, ratio of IC50 for African green monkey Vero cells to IC50 for chloroquine-sensitive Plasmodium falciparum D6; type: toxicity, cell-based; conditions: read-out: Ratio IC50
SK-MEL = test: Cytotoxicity against human SK-MEL cells by neutral red uptake assay; type: cell-based
[14] = test system: Mycobacterium intracellulare; test: Antibacterial activity against Mycobacterium intracellulare; type: functional, organism-based
Staphylococcus aureus [15] = test: Antibacterial activity against methicillin-resistant Staphylococcus aureus; type: functional, organism-based
Cryptococcus neoformans [16] = test: Antifungal activity against Cryptococcus neoformans by broth microdilution assay; type: functional, organism-based
Staphylococcus aureus [17] = test: Antibacterial activity against Staphylococcus aureus; type: functional, organism-based

Row | SMILES | Activity (Pseudomonas aeruginosa) | IC50 (Vero) [µg/mL] | IC50 (SK-OV-3) [µg/mL] | Activity (Plasmodium berghei [2]) | Activity (Nakaseomyces glabratus) | IC50 (Leishmania donovani) [µg/mL] | IC90 (Leishmania donovani) | IC50 (LLC-PK1) [µg/mL] | Activity (Escherichia coli) | selectivity ratio [4] | Activity (Candida albicans) | IC50 (Plasmodium falciparum [5]) [µg/mL] | Activity (Pichia kudriavzevii) | Activity (Aspergillus fumigatus) | IC50 (Plasmodium falciparum [6]) [µg/mL] | IC50 (BT-549) [µg/mL] | IC50 (KB) [µg/mL] | Activity (Cryptococcus neoformans [9]) | Activity [10] | IC50 [12] [µM] | also measured
1 | COc1cc(NC(C)CCCNC(C)CCCNC(C)CCCN)c2ncccc2c1.Cl (stereo not drawn) | inactive | > 23.8 | > 23.8 | 100% | inactive | 4.2 | 40 µg/mL | > 23.8 | inactive | > 15.8 | inactive | 2.6 | inactive | inactive | 1.5 | > 23.8 | > 23.8 | inactive | inactive | 75 | Activity (Plasmodium berghei [1]): Active; Activity (Staphylococcus aureus [3]): inactive; Activity (Plasmodium berghei [7]): 100%; Activity (Plasmodium berghei [8]): 100%; Activity (Plasmodium berghei [11]): 100%; selectivity ratio [13]: > 9.1; IC50 (SK-MEL): > 23.8 µg/mL
2 | COc1cc(NC(C)CCCNC(C)CCCN)c2ncccc2c1.Cl (stereo not drawn) | inactive | > 23.8 | > 23.8 | 100% | inactive | 32 | inactive | > 23.8 | inactive | > 29.7 | inactive | 0.57 | inactive | inactive | 0.8 | > 23.8 | > 23.8 | inactive | inactive | 18.5 | Activity (Plasmodium berghei [1]): Active; IC50 [14]: 10 µg/mL; Activity (Staphylococcus aureus [3]): inactive; Activity (Plasmodium berghei [7]): 100%; Activity (Plasmodium berghei [8]): 100%; Activity (Plasmodium berghei [11]): 100%; selectivity ratio [13]: > 41.7; IC50 (SK-MEL): > 23.8 µg/mL
3 | CCCCOc1c(OC)cc(NC(C)CCCNC(C)CCCN)c2nccc(CC)c12.Cl (stereo not drawn) | inactive | > 23.8 | > 23.8 | inactive | inactive | 3.5 | 7 µg/mL | > 23.8 | inactive | > 64.2 | inactive | 0.6 | inactive | inactive | 0.37 | > 23.8 | > 23.8 | inactive | inactive | 10.2 | IC50 (Staphylococcus aureus [15]): 12.5 µg/mL; MBC (Staphylococcus aureus [15]): 20 µg/mL; MIC (Staphylococcus aureus [15]): 20 µg/mL; IC50 [14]: > 20 µg/mL; IC50 (Cryptococcus neoformans [16]): 7.9 µg/mL; MIC (Cryptococcus neoformans [16]): 20 µg/mL; selectivity ratio [13]: > 39.6; IC50 (Staphylococcus aureus [17]): 13.7 µg/mL; MBC (Staphylococcus aureus [17]): 20 µg/mL; MIC (Staphylococcus aureus [17]): 20 µg/mL; IC50 (SK-MEL): > 23.8 µg/mL
4 | COc1cc(NC(C)CCCNC(C)CCCNC(C)CCCNC(C)CCCN)c2ncccc2c1.Cl (stereo not drawn) | inactive | > 23.8 | > 23.8 | 100% | inactive | 5 | 40 µg/mL | > 23.8 | inactive | > 18.3 | inactive | 2.3 | inactive | inactive | 1.3 | > 23.8 | > 23.8 | inactive | inactive | 75 | Activity (Plasmodium berghei [1]): Active; Activity (Staphylococcus aureus [3]): inactive; Activity (Plasmodium berghei [7]): 100%; Activity (Plasmodium berghei [8]): 100%; Activity (Plasmodium berghei [11]): 100%; selectivity ratio [13]: > 10.3; IC50 (SK-MEL): > 23.8 µg/mL
